Key:
sAPPα [1] = test: sAPPα release into medium of SH-SY5Y neuroblastoma cells; type: cell-based, human; conditions: SH-SY5Y, 0.1, 1 and 10 μM, 3 h, versus untreated cells
Experimental: (§1) For the experiments, cells were seeded (2×10^6) onto 100-mm plates (for SH-SY5Y cells) or T75 flasks (for PC12 cells) in culture medium supplemented with full serum for 48 h. The cells were replaced with fresh medium containing 0.5% FCS for an additional 24 h (subconfluent culture), and then the experiments were performed in fresh medium containing 0.5% FCS for the indicated time periods at 37° C. After incubation with various drugs, the conditioned media were collected, centrifuged at 3500 g (10 min, 4° C.) to remove cell debris, and the cleared supernatants were concentrated 10-fold by lyophilization.
(vii) Determination of sAPP. Protein concentrations of cell lysates were assayed using Bradford reagent (Sigma Chemical). Equal amounts of volumes of conditioned medium, standardized to lysate protein, were subjected to […], using either the MAbs 22C11 or 6E10 in 50 mM Tris-HCl, pH 7.4, 150 mM NaCl, containing 0.05% Tween 20 and 1% BSA. Immunoreactivity was detected using anti-mouse IgG-conjugated with HRP and an enhanced chemiluminescence method (Amersham, Pharmacia Biotech, UK). Blots were developed for different times to span a linear range of response, and the relative intensity of immunoreactive bands on the exposed films was quantified by computer-assisted densitometry program (Quantity One, Bio-Rad, Hercules, Calif., USA).
It was of interest to determine whether rasagiline and other propargylamine-containing drugs also regulate APP processing. For this purpose, SH-SY5Y neuroblastoma cells were incubated for 3 h without or with 1 μM of various drugs (TV3326 and its S-isomer TV3279, rasagiline and its S-isomer TVP1022, selegiline, aminoindan), and sAPPα was measured in the media as described in Materials and Methods.
(§2) We further characterized, in detail, the effect of rasagiline on APP processing and the signaling pathways that are involved. Thus, SH-SY5Y neuroblastoma cells were incubated for 3 h without or with increasing concentrations of rasagiline (0.1, 1 and 10 μM), and sAPPα was measured in the media as described in Materials and Methods.
For the sAPPα release, SH-SY5Y neuroblastoma cells or PC12 cells were incubated for 3 h without or with increasing concentrations of propargylamine (0.1, 1 and 10 μM), and sAPPα was measured in the media as described in Materials and Methods.

sAPPα [2] = test: sAPPα release into medium of PC12 cells; type: cell-based, rat; conditions: PC12, 0.1, 1 and 10 μM, 3 h
Experimental: as §1
(vii) Determination of sAPP. […] Immunoreactivity was detected using anti-mouse IgG-conjugated with HRP and an enhanced chemiluminescence method (Amersham, Pharmacia Biotech, UK). Blots were developed for different times to span a linear range of response, and the relative intensity of immunoreactive bands on the exposed films was quantified by computer-assisted densitometry program (Quantity One, Bio-Rad, Hercules, Calif., USA).
as §2, with “Methods. […]” for “Methods.”

rat brain MAO-A = target: T1, rat brain MAO-A (Rattus norvegicus, UniProt P21396); test: In vitro inhibition of rat brain MAO-A; type: biochemical; conditions: rat brain homogenate, 60 min preincubation at 37° C., 14C-5-hydroxytryptamine
T1 construct: from tissue; host or cells: rat brain homogenate
T1 sequence (P21396 1-526): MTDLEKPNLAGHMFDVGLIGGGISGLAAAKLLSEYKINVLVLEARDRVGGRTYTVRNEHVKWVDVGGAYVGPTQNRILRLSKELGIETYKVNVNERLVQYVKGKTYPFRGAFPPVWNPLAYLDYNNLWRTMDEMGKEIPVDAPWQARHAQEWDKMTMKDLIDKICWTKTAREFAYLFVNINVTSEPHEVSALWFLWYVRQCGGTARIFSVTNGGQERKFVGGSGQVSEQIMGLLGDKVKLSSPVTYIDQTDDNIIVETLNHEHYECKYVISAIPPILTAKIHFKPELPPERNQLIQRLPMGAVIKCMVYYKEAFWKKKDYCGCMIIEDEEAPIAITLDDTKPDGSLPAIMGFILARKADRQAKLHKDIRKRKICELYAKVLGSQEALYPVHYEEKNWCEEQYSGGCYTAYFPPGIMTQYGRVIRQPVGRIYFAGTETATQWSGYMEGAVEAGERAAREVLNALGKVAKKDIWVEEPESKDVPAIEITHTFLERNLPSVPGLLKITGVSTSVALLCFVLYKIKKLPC
Experimental: To determine the activity of MAO-A and MAO-B, the test compound is added to a suitable dilution of the enzyme preparation from rat brain (70 μg protein for MAO-B and 150 μg MAO-A assay) in 0.05 M phosphate buffer (pH 7.4). Tthe mixture is incubated together with […], a specific inhibitor of MAO-B (for determination of MAO-A) or with […], a specific inhibitor of MAO-A (for determination of MAO-B). Incubation is carried for 1 h at 37° C. before addition of ^14C-5-hydroxytryptamine binoxalate ([…]), for determination of MAO-A, or ^14C-phenylethylamine ([…]), for determination of MAO-B, and incubation is continued for 30 min or 20 min, respectively. The reaction is stopped with 2 M ice-cold citric acid, and the metabolites are extracted and determined by liquid-scintillation counting in cpm units.
Thus, in one experiment, the in vitro inhibitory activity of 5-(4-propargylpiperazin-1-ylmethyl)-8-hydroxy-quinoline (HLA20) and the 8-hydroxyquinoline derivative designated M32 (both iron chelators disclosed in the International Application PCT/IL03/00932), and propargylamine (P) (0.1, 1, 10, 100 μM) were tested against rat brain MAO-A. The test compounds were added to buffer containing 0.05 μM deprenyl and were incubated with the tissue homogenate for 60 min at 37° C. before addition of ^14C-5-hydroxytryptamine. […]

C#CCN [propargylamine]
sAPPα released into the medium (sAPPα [1]): significant, dose-dependent increase in sAPPα | sAPPα released into the medium (sAPPα [2]): significant, dose-dependent increase in sAPPα | IC50 (rat brain MAO-A): ~66 µM
